Measurements taken from patent US10851043B1, “Compound for fatty acid synthase inhibition” (KANNUR UNIVERSITY, priority 2019, dated 2020).
Values after ≈ are worked out from the molar mass of the structure shown.

Key:
[1] = target: FAS prepared from Saccharomyces cerevisiae (Saccharomyces cerevisiae, UniProt P07149+P19097); conditions: Li et al. (2002), cited from earlier work
[2] = In-vitro cytotoxic effect on cultured L929 cells (MTT assay); format: cell-based; conditions: mouse
Experimental: (§1) Cultures of L929 (Fibroblast cells) were maintained in Dulbecco's modified eagles media supplemented with 10% fetal bovine serum (FBS) and grown to confluence at 37° C. and 5% CO2 in a humidified atmosphere using a CO2 incubator. The cells were trypsinised (500 μL of 0.025% Trypsin in PBS/0.5 mM Ethylene diamine tetraacetic acid (EDTA) solution for 2 minutes and passed to T flasks under complete aseptic conditions. Test compounds were added to grown cells at a final concentration of 6.25, 12.5, 25, 50 and 100 μg/mL from a stock of 1 mg/mL and incubated for 24 hours. The percentage difference in viability was determined by standard MTT assay after 24 hours of incubation. The MTT assay is a colorimetric assay for assessing cell metabolic activity. NAD (P) H-dependent cellular oxidoreductase enzymes under defined conditions, reflect the number of viable cells present.
(§2) Viability percentage was calculated using the Formula, % viability=(OD of Test/OD of control)×100, • where control OD was 0.993.

[3] = tested on: L929 (Fibroblast cells); experiment: as above; format: cell-based; conditions: MTT, 24 hours
Experimental: as §1, §2

[4] = tested on: A549 lung carcinoma cells; experiment: In-vitro anti-proliferative property on cultured A549 cells (MTT assay); format: cell-based; conditions: for IC50 / viability at 6.25 µg/mL / viability at 12.5 µg/mL / viability at 25 µg/mL / viability at 50 µg/mL / viability at 100 µg/mL: Homo sapiens; for IC50: A549, 24 h, read-out: IC50 anti-proliferative activity against A549 cells; for IC50 / IC50 anti-proliferative activity against A549 cells: MTT; for viability at 6.25 µg/mL / viability at 12.5 µg/mL / viability at 25 µg/mL / viability at 50 µg/mL / viability at 100 µg/mL / IC50 anti-proliferative activity against A549 cells / Percentage Viability: 24 hours; for viability at 6.25 µg/mL / viability at 12.5 µg/mL / viability at 25 µg/mL / viability at 50 µg/mL / viability at 100 µg/mL: read-out: Percentage Viability
Experimental: A549 lung carcinoma cells were maintained in Dulbecco's modified eagles media (Himedia, India) supplemented with 10% FBS (Invitrogen, India) and grown to confluence at 37° C. and 5% CO2 in a humidified atmosphere using a CO2 incubator (NBS, Eppendorf, Germany). The cells were trypsinized (500 μL of 0.025% trypsin in PBS/0.5 mM EDTA solution (Himedia, India) for 2 minutes and transferred to T flasks under aseptic condition. Test compounds were added to grown cells with a final concentration of 6.25, 12.5, 25, 50, 100 μg/mL from a stock of 1 mg/mL and incubated for 24 hours. The % difference in viability was determined by standard MTT assay (Arung et al. 2000) after 24 hours of incubation. Viability percentage was calculated using the Formula, % viability=(OD of Test/OD of Control)×100

[5] = tested on: FAS I enzyme from bovine liver; experiment: FAS I assay (NADPH oxidation at 340 nm); format: biochemical, Indian water buffalo; conditions: for Average ΔC (change in concentration of NADPH): control 0.051383
Experimental: Crude preparation of FAS I enzyme was made according to modified protocol of Dulter et al. (1971). Liver from freshly slaughtered Indian water buffalo was collected and transported in ice bucket and kept at 4° C. till processing. The liver was processed at the earliest by removing connective tissues and sliced into small pieces. Using a blender, about 750 g of liver was minced to form a suspension with 0.05 M potassium phosphate buffer pH 7.4 containing 1 mM EDTA to make up to a volume of 2.5 liters. The thick solution was centrifuged at 7500×g for 20 minutes to remove meat debris and the supernatant obtained was further centrifuged at 30000×g for 30 minutes to get a translucent solution. The supernatant was further diluted to specific volume using 0.05 M Potassium phosphate buffer (pH 7.4) with 1 mM EDTA and brought initially to 10% and then to 40% saturation with solid ammonium sulfate at 4° C. The 40% ammonium sulfate fraction was centrifuged and protein precipitate was re-dissolved in 0.05 mM Tris HCl buffer, pH 7.4, dialyzed against same buffer. The FAS I enzyme was further purified by ion exchange chromatography with Diethylaminoethyl (DEAE) cellulose column as described above (Dulter et al. 1971).
FAS assay for FAS I enzyme was performed according to a modified process of Li et al. 2002. Crude protein was made up to a concentration of 0.5 mg/mL of protein and used for the assay. Assay was carried out in 96 well plates with the final working volume of 100 μL. Compounds to be tested were incubated with previously made crude protein extract for 30 minutes at 25° C. 50 μL of this mixture was added to 50 of reaction mixture containing 1 mM each of malonyl CoA and Nicotinamide adenine dinucleotide phosphate (NADPH), 40 μM acetyl CoA, and 2 mM Dithiothreitol (DTT) in phosphate buffer (250 mM).
The microplate was read immediately for 10 minutes at 340 nm. FAS activity was calculated by subtracting the optical density (OD) value obtained after 1 minute from the OD value obtained after 10 minutes. FAS activity was calculated and compared with that of control and test compounds. Dimethyl sulfoxide (DMSO) was taken as control as it was used to dilute the compounds. […] The negative control consisted of protein plus reaction buffer. Another control consisted of buffer reaction without protein. The IC50 was determined by linear regression. FAS activity was determined by the rate of oxidation of NADPH to NADP which was monitored at 340 nm. The change in concentration of NADPH during oxidation was calculated using the following equation: ΔC=ΔA/E
Where, ΔC was change in the concentration of NADPH, ΔA was change in absorbance, and E was extinction coefficient of NADPH (E340 nm=6.22 mM^−1·cm^−1). FAS activity was expressed as n mol NADPH oxidized/min/mg protein.

[6] = tested on: Bacterial FAS II enzyme; experiment: FAS II assay (NADPH oxidation at 340 nm); format: biochemical, Bacillus subtilis; conditions: for Average ΔC (change in concentration of NADPH): control 0.05037
Experimental: Crude FAS containing protein fraction was isolated according to the modified protocol of Ahmad et al. (1981). Stock culture of Bacillus subtilis was inoculated in 100 mL LB broth pH 7.2 and cultured for 24 hours at room temperature. It was used for further inoculation of four 1000 mL flasks with same media and culture conditions. The flasks were placed in a rotator shaker to ensure adequate suspension of cells. Bacteria were harvested during the late-exponential phase of growth by centrifugation at 10000×g for 10 minutes and washed twice with 50 mM sodium phosphate buffer (pH 7.0) to provide cell pastes which were stored at -20° C. until use. Frozen cell pastes (25-35 g) were thawed and suspended in 50 mM sodium phosphate buffer (pH 7.0). The cell suspension was disrupted by sonication (12 W, 6×15 pulses with 15 second intervals) in 2 mL Eppendorf tubes containing 1.5 mL of cell suspension, supplemented with lysozyme (250 μg/mL) in a sonicator, operating at maximum power output while maintaining the temperature below 4° C. Unbroken cells and cell debris were removed by centrifugation at 30000×g for 30 minutes at 4° C. The […] were re-suspended in 50 mM sodium phosphate buffer (pH 7.0) and made up to appropriate volume and subjected to ammonium sulphate precipitation. Solid ammonium sulphate was added and the protein precipitate at 40-60% saturation was collected by centrifugation, dialyzed and used for further assay. FAS assay for FAS I enzyme was performed according to a modified process of Li et al. 2002. Crude protein was made up to a concentration of 0.5 mg/mL of protein and used for the assay. Assay was carried out in 96 well plates with the final working volume of 100 μL. […] The microplate was read immediately for 10 minutes at 340 nm. FAS activity was calculated by subtracting the optical density (OD) value obtained after 1 minute from the OD value obtained after 10 minutes. FAS activity was calculated and compared with that of control and test compounds. Dimethyl sulfoxide (DMSO) was taken as control as it was used to dilute the compounds. […] The negative control consisted of protein plus reaction buffer. Another control consisted of buffer reaction without protein. The IC50 was determined by linear regression. FAS activity was determined by the rate of oxidation of NADPH to NADP which was monitored at 340 nm. The change in concentration of NADPH during oxidation was calculated using the following equation: ΔC=ΔA/E Where, ΔC was change in the concentration of NADPH, ΔA was change in absorbance, and E was extinction coefficient of NADPH ([…] nm=6.22 mM^-1·cm^-1). FAS activity was expressed as n mol NADPH oxidized/min/mg protein. Assay using partially purified enzyme from Bacillus subtilis was also performed to verify the FAS II inhibitory activity of compound of Formula II. […] The graph was plotted with change in concentration of NADP to NADPH against time. Each point in graph was the concentration of NADPH measured on a spectrophotometer at 340 nm (FIGS. 6 and 7 for FAS II and FAS I respectively).

Sequence of FAS prepared from Saccharomyces cerevisiae (P07149 whole entry): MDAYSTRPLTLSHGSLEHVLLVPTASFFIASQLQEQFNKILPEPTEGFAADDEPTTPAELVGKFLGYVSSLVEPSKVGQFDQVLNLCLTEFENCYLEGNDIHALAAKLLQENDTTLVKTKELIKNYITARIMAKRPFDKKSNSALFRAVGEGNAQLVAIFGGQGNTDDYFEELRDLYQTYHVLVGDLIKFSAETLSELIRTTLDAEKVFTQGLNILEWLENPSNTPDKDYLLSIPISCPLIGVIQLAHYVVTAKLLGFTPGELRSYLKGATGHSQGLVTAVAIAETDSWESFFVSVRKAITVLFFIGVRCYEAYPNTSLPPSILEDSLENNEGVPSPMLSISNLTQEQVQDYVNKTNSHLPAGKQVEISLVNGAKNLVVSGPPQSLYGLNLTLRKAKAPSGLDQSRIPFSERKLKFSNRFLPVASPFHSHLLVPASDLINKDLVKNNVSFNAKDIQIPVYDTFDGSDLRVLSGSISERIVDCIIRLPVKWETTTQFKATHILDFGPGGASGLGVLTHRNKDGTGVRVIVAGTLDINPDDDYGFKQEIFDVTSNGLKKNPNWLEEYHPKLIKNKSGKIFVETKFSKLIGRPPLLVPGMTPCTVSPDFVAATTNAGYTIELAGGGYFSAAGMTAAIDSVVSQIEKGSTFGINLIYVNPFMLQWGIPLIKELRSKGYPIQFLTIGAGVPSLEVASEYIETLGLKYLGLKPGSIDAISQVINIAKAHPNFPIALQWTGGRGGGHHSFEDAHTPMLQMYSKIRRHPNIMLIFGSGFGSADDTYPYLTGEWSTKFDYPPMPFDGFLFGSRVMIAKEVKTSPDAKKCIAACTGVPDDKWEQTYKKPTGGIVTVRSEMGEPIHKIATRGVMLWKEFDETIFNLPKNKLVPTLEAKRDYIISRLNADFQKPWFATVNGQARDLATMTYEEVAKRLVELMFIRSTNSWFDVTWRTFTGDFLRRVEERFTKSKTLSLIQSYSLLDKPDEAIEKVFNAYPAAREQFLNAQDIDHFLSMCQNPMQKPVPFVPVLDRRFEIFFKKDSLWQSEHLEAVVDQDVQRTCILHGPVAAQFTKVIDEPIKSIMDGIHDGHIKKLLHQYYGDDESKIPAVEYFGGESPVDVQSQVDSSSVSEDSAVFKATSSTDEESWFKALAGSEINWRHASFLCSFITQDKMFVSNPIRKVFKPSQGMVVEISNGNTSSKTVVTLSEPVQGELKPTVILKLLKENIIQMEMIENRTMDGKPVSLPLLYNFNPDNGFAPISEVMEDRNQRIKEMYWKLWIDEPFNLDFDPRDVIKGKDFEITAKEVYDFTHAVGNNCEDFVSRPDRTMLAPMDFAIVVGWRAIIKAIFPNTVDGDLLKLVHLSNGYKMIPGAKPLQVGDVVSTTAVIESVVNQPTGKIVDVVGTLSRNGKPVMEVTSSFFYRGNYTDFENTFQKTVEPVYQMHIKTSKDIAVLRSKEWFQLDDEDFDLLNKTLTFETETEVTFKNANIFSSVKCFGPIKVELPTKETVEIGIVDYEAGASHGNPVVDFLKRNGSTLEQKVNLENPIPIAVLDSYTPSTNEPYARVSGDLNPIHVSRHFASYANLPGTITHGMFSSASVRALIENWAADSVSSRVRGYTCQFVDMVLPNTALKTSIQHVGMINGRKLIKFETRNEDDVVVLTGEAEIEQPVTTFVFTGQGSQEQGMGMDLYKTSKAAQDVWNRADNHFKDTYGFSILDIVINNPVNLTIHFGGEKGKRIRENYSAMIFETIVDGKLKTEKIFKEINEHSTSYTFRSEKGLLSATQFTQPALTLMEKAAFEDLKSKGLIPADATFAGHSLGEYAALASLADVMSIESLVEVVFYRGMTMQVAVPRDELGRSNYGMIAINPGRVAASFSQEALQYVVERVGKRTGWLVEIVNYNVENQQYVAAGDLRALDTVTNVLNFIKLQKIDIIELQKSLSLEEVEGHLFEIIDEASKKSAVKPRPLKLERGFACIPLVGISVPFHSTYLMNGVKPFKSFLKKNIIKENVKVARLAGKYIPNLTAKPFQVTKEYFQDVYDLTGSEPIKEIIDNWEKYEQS
Sequence of FAS prepared from Saccharomyces cerevisiae (P19097 whole entry): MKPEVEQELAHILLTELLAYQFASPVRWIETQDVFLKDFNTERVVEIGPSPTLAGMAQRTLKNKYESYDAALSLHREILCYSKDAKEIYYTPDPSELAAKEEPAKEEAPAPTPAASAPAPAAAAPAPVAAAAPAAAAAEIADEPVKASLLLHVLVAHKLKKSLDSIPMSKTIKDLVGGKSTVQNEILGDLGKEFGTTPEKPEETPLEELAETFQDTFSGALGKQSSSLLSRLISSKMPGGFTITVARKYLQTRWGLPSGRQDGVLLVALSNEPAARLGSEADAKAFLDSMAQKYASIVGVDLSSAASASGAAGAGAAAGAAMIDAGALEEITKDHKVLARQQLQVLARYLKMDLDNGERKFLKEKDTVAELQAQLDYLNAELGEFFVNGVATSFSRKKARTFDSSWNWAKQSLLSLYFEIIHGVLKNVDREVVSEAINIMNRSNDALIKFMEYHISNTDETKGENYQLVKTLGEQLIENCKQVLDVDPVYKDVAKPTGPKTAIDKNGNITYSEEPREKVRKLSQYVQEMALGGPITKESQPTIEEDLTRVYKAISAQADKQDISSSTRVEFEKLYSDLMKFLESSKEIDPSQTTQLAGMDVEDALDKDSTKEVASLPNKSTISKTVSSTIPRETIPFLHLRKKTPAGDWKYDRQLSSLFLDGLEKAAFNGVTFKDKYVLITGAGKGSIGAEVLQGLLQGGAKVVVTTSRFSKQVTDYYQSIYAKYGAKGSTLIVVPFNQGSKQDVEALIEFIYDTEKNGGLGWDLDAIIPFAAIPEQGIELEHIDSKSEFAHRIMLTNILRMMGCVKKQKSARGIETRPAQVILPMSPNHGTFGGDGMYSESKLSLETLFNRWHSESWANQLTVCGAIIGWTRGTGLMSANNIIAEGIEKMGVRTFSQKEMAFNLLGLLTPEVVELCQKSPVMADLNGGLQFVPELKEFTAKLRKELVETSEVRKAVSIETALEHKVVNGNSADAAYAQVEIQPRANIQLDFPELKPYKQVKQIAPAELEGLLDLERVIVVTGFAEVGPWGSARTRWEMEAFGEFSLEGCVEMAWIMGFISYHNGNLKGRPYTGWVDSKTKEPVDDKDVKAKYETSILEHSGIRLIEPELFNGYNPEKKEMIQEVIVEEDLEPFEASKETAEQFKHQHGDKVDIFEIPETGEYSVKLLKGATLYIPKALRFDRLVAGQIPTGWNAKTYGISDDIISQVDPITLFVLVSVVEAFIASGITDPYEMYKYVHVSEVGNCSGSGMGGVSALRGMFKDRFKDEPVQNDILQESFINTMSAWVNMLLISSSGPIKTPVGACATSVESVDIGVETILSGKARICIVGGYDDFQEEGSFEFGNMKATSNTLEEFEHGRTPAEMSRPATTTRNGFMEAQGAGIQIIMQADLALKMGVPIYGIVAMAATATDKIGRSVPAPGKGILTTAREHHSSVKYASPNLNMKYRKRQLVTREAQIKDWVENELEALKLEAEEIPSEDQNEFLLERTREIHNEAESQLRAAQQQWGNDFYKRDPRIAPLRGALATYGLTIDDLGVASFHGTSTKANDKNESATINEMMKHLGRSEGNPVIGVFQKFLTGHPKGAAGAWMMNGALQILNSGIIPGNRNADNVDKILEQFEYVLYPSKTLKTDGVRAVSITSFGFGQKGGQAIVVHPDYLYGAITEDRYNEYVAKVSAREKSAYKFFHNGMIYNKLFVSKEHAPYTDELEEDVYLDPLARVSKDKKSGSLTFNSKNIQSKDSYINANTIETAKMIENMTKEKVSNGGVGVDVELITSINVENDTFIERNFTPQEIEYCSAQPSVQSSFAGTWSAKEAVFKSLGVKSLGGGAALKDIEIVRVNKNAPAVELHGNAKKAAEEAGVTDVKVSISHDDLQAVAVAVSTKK

Row | Structure (SMILES) | IC50 [4] | viability at 6.25 µg/mL ([4]; A549, 6.25 μg/mL) | viability at 12.5 µg/mL ([4]; A549, 12.5 μg/mL) | viability at 25 µg/mL ([4]; A549, 25 μg/mL) | viability at 50 µg/mL ([4]; A549, 50 μg/mL) | viability at 100 µg/mL ([4]; A549, 100 μg/mL) | IC50 anti-proliferative activity against A549 cells [4] | Inhibition compared to control [5] | Average ΔC (change in concentration of NADPH) [5] | Inhibition compared to control [6] | Average ΔC (change in concentration of NADPH) [6] | further results
1 | C[C@@H]1O[C@@H](Oc2cc3c(=O)oc4c(O)c(O)cc5c(=O)oc(c2O)c3c45)[C@H](O)[C@H](O)[C@H]1O [ellagic acid 4-O-alpha-1-rhamnopyranoside] |  |  |  |  |  |  |  |  |  |  |  | IC50 against FAS [1]: 7.5 microgram/mL
2 | CC(C)[C@H](O)C(=O)/C(O)=C/[C@@H](N)/C=C\CCCC[C@H]1C=C[C@@H](O)C=C1 [Compound of Formula II, (3S,5Z,7S,8Z)-7-amino-3,5-dihydroxy-2-methyl-13-[(1s,4s)-4-hydroxycyclohexa-2,5-dien-1-yl]trideca-5,8-dien-4-one] | 74 to 78 µg/mL | 92.3% | 89.7% | 67.4% | 55.7% | 42.6% | 76.034 µg/mL | 41.49% | 0.03006 | 30.54% | 0.03498 | viability at 24 h, 6.25 μg/mL [2]: 90.8%; viability at 24 h, 12.5 μg/mL [2]: 85.8%; viability at 24 h, 25 μg/mL [2]: 74.7%; viability at 24 h, 50 μg/mL [2]: 64.3%; viability at 24 h, 100 μg/mL [2]: 55.8%; LD50 against L929 cell lines [3]: about 89.65 μg/mL
3 | C=C1C(=O)OC(CCCCCCCC)C1C(=O)O (stereo not drawn) [C75] |  |  |  |  |  |  | 99.034 µg/mL (≈ 389 µM) | 29.60% | 0.03612 | 15.67% | 0.04248 | Percentage Viability ([4]; A549, 6.25 μg/mL): 100.0%; Percentage Viability ([4]; A549, 12.5 μg/mL): 100.0%; Percentage Viability ([4]; A549, 25 μg/mL): 80.110%; Percentage Viability ([4]; A549, 50 μg/mL): 66.483%; Percentage Viability ([4]; A549, 100 μg/mL): 55.985%
4 | C/C=C/C/C=C/CCC(=O)[C@H]1O[C@H]1C(N)=O [Cerulenin] | 86.4 µg/mL (≈ 387 µM) | 100% | 96.9% | 72% | 62.2% | 48.1% |  | 36.49% | 0.03248 | 21.48% | 0.03955 | 
5 | O=Cc1cc(-c2coc3cc(O)cc(O)c3c2=O)ccc1O [3′-Formylgenistein] |  |  |  |  |  |  |  |  |  |  |  | IC50 ([1]; read-out: IC50 against FAS (converted)): 7.71 µM
